{"source": "ChEMBL document CHEMBL4819006", "about": "“1,4,6-Trisubstituted imidazo[4,5-c]pyridines as inhibitors of Bruton's tyrosine kinase” (Eur J Med Chem, 2021)", "key": {"[1]": {"target": "T1, Mitogen-activated protein kinase; ERK1/ERK2 (Homo sapiens) (UniProt P27361+P28482)", "T1 sequence (P27361 whole entry, looked up)": "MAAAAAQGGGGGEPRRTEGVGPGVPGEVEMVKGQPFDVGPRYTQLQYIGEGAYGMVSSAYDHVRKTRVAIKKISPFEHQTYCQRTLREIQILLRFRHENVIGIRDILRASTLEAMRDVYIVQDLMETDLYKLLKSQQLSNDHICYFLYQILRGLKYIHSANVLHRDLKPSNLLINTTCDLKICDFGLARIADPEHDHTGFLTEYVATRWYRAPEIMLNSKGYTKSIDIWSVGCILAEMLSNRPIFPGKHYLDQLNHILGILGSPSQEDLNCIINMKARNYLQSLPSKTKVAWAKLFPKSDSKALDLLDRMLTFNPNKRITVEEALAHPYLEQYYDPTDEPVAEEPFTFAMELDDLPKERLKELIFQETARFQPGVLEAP", "T1 sequence (P28482 whole entry, looked up)": "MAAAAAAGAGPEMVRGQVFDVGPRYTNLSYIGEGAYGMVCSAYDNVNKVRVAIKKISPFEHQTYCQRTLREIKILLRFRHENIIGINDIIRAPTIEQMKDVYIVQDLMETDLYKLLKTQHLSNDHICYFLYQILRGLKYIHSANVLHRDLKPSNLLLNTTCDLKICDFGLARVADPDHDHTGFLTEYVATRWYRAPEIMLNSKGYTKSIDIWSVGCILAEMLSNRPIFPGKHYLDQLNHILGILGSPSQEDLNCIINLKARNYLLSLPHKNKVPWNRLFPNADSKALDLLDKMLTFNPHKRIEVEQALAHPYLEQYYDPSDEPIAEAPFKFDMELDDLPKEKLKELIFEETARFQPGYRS", "assay": "Inhibition of ERK1/2 in human Ramos cells assessed as reduction in ERK1/2 phosphorylation at 0.125 to 1 uM measured after 24 hrs by western blot assay", "assay_type": "cell-based", "conditions": "dose 0.125-1 µM"}, "[2]": {"target": "T1, Mitogen-activated protein kinase; ERK1/ERK2 (Homo sapiens)", "assay": "Inhibition of ERK1/2 in human UPF7U cells assessed as reduction in ERK1/2 phosphorylation at 0.125 to 1 uM measured after 24 hrs by western blot assay", "assay_type": "cell-based", "conditions": "dose 0.125-1 µM"}}, "note": "Activity calls are given as the source filed them. The calls are words filed in the database; no cut-off is given here.", "data": [{"compound": "c1cn2cc(-c3ccc4cn[nH]c4c3)nc(Nc3ccc(N4CCOCC4)cc3)c2n1", "values": [{"measurement": "inhibition", "setting": "[1]", "value": "Active"}, {"measurement": "inhibition", "setting": "[2]", "value": "Active"}]}]}
